Measurements as given in patent US5326774A, “Pharmaceutical preparation of antihypertensive, antianginal, antiarrhythmic and antiglaucomic action” (priority 1992, dated 1994).
Entries after “also recorded” stand apart in the source; their conditions may differ. Where two headings read alike, the source gives them in different places.

What was measured:
β1-adrenoceptor [1] = experiment: Isadrin's positive chronotropic effect, i.v., anesthetized cats; type: in vivo, cat
Description: (§1) The influence of intravenous injection of the compound according to the invention as compared with the known drugs on […] positive chronotropic and depressor effects in the anesthetized cats was studied.

[2] = tested on: mesaton-initiated pressor effect; experiment: Mesaton-initiated pressor effect in anesthetized rats; type: in vivo, rat
[3] = tested on: mesaton-initiated pressor effect; experiment: Mesaton-initiated pressor effect in cats; parameters: species or system cat; details: in vivo (rats and cats), i.v.
Method: The same tests were carried out on cats.

[4] = tested on: intraocular tension of intact rabbit eyes; details: for Average decrease of intraocular tension OD, M ± m / Intraocular tension level OD, M ± m: 1% solution
Method: The effects of the compound according to the invention on intraocular tension and hydrodynamics of the eye was tested in 28 chinchilla rabbits with body weight of 2.5-3.5 kg.
The left animal eyes were control wherein using the same procedure a diluent was instilled.

β1-adrenoceptor [5] = target: T1, β1-adrenoceptor (Rattus norvegicus, UniProt P18090); experiment: Oral administration, isadrin-initiated positive chronotropism in rats; type: in vivo
T1 construct: positive chronotropic and depressor effects in the anesthetized rats; from tissue; host or cells: whole living rat (heart rate response to isadrin); endogenous receptor
T1 sequence (P18090 whole entry): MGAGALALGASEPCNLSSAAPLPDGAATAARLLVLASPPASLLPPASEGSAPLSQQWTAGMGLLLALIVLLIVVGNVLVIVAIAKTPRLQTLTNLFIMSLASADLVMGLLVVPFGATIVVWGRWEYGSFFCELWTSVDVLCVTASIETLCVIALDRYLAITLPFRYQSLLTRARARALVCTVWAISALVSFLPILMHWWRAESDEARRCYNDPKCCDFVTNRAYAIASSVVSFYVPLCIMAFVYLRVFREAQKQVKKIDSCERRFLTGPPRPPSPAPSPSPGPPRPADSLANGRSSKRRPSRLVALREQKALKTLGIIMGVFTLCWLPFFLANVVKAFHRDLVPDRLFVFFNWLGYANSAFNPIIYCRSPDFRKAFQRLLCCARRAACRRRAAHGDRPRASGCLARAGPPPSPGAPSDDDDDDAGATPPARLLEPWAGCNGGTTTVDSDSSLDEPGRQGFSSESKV
Method: The effects of oral administration of the compound according to the invention as compared with the known drugs on the isadrin-initiated positive chronotropism in rats were tested.

arterial pressure [6] = experiment: Antihypertensive effect in rats with renovascular hypertension; type: in vivo, rat
Method: . In rats suffering from renovascular hypertension the compound of the invention in the dosage of 10 mg/kg (injected intramuscularly) lowered with confidence the arterial pressure (from 137±3 to 117±5 mm of Hg column) 30 minutes after being administered. The 2-week course of the administration of the compound according to the invention (10 mg/kg 1 time a day) caused the antihypertensive effect to be enhanced. By the end of the second week the arterial pressure was 110±8.6 mm Hg. […]

β2-adrenoceptor = experiment: Isadrin's depressor effect, i.v., anesthetized cats; type: in vivo, cat
Description: as §1

experimental animals = experiment: Chronic toxicity, intragastric; type: in vivo
coronary vessels = experiment: Coronary vessel dilatation and myocardial perfusion in anesthetized rats; type: in vivo, rat; details: 0.1 mg/kg i.v. (compound of the invention); hydrochloride
Description: The coronarodilative effect of the compound according to the invention is not associated with its β- and α-adrenoceptor blocking activity and its influence on the systemic perfusion pressure and pump function of the heart. […]

ventricular fibrillation = experiment: Ventricular fibrillation during acute coronary occlusion and reperfusion in anesthetized dogs; type: in vivo, dog; details: single animals, hydrochloride
β-adrenoceptor [7] = experiment: Specificity of β-adrenoceptor blocking effect: positive inotropism
Description: Thus, the compound of the invention relates to specific β-adrenoceptor blocking agents.

arterial pressure [8] = experiment: Arterial pressure in anesthetized rats, i.v.; type: in vivo, rat; details: for arterial pressure: control 159±9
Method: β-adrenoceptor blocking activity of the active principle of the pharmaceutical preparation of the invention was studied. […]. The test substances were injected to several groups of animals (6-10 individuals each) in the graded doses of 0.001, 0.0025, 0.01, 0.025, and 0.1 mg/kg.
From the dosage of […] it gave rise to the lowering of arterial pressure (from 159±9 in the control to 141±11, 127±10 and 123 ±11 mm Hg in the dosages of 0.01, 0.025 and 0.1 mg/kg). From the dosage of 0.0025 mg/kg the compound of the invention gave rise to the dose-related suppression of the isadrin-initiated depressor effect (by 12,63, 82 and 90% in doses of 0.0025, 0.01, 0.025 and 0.1 mg/kg) and, starting from the dosage of […], a positive chronotropic (by 25, 46 and 78% in doses of 0.01, 0.025 said 0.1 mg/kg, respectively) effect.

β-adrenoceptor [9] = experiment: Partial agonistic activity and non-specific membrane-stabilizing effect
[10] = Solubility of the active principle; type: physicochemical
β1-adrenoceptor [11] = target: T1, β1-adrenoceptor; experiment: Inhibition of isadrin's positive chronotropic effect, i.v., anesthetized rats; type: in vivo
arterial pressure [12] = experiment: Arterial pressure and heart rate in conscious normotensive rats, oral; type: in vivo, rat; details: 10 and 50 mg/kg oral, 1 hour
[13] = tested on: electrically induced ventricular fibrillation; experiment: Threshold of electrically induced ventricular fibrillation in anesthetized cats; type: in vivo, cat

Description for albino mice: LD50 values were estimated by using the Litchfield-Wilckoxon method.

For `Cc1noc(COc2ccccc2OCC(O)CNC(C)(C)C)n1.Cl` (centres unmarked) [Compound of the invention, 3-methyl-5-[2-(3-tert.butylamino-2-hydroxypropoxy)phenoxymethyl]-1,2,4-oxadiazole hydrochloride], the “β1-adrenoceptor blocking activity compared with pindolol” value (β1-adrenoceptor [1]) was “close to pindolol”, the “β1-adrenoceptor blocking activity, factor over labetalol” value (β1-adrenoceptor [1]) was 550 and the “β1-adrenoceptor blocking activity, factor over oxprenolol” value (β1-adrenoceptor [1]) was 35. For the same compound, the “β1-adrenoceptor blocking activity, factor over propranolol” value (β1-adrenoceptor [1]) was 3.5, the “effect on mesaton pressor effect” value ([2]; 3 mg/kg i.v.) was “did not change” and the “suppression of mesaton pressor effect” value ([2]; 10 mg/kg i.v., average) was 76%. The “adrenoceptor blocking activity compared with labetalol” value [3] was “did not differ from labetalol”, the “tolerability for rabbit eyes” value ([4]; 0.5, 1 and 2% solutions) was “well-tolerable” and the “Average decrease of intraocular tension OD, M ± m” value (shortened to “Average decrease”) ([4]; 1 hour) was 1.9 ± 0.3 ram of Hg column. The “Intraocular tension level OD, M ± m” value ([4]; 1 hour) was 17.1 ± 0.3 ram of Hg column, the “Average decrease” value ([4]; 2 hours) was 2.6 ± 0.2 ram of Hg column and the “Intraocular tension level OD, M ± m” value ([4]; 2 hours) was 16.5 ± 0.4 ram of Hg column. The “Average decrease” value ([4]; 3 hours) was 2.3 ± 0.3 ram of Hg column, the “Intraocular tension level OD, M ± m” value ([4]; 3 hours) was 17.1 ± 0.4 ram of Hg column and the “Average decrease” value ([4]; 4 hours) was 2.3 ± 0.3 ram of Hg column. The “Intraocular tension level OD, M ± m” value ([4]; 4 hours) was 17.1 ± 0.2 ram of Hg column, the “Average decrease” value ([4]; 5 hours) was 1.5 ± 0.5 ram of Hg column and the “Intraocular tension level OD, M ± m” value ([4]; 5 hours) was 17.6 ± 0.4 ram of Hg column. For the same compound, the “Average decrease” value ([4]; 6 hours) was 1.2 ± 0.4 ram of Hg column, the “Intraocular tension level OD, M ± m” value ([4]; 6 hours) was 17.8 ± 0.4 ram of Hg column and the “Average decrease” value ([4]; 24 hours) was 0.8 ± 0.5 ram of Hg column. For the same compound, the “Intraocular tension level OD, M ± m” value ([4]; 24 hours) was 18.2 ± 0.7 ram of Hg column, the “mechanism of lowering of intraocular tension” value ([4]; intact rabbit eyes) was “decrease in secretion of surface water (watery moisture)” and the “duration of lowering of intraocular tension” value ([4]; intact rabbit eyes, 0.5, 1 and 2% solutions) was 6 to 8 h. The irritating effect ([4]; rabbit, in vivo) was “no irritating effect”, the pupil value ([4]; rabbit, in vivo) was “do not change considerably the pupil value” and the “β1-adrenoceptor blocking activity compared with pindolol” value (β1-adrenoceptor [5]) was “inferior to pindolol”. For the same compound, the “β1-adrenoceptor blocking activity, superior to labetalol by” value (β1-adrenoceptor [5]) was 35 times, the “β1-adrenoceptor blocking activity, superior to propranolol by” value (β1-adrenoceptor [5]) was 14.8 times and the arterial pressure (arterial pressure [6]; 10 mg/kg 1 time a day, end of second week) was 110±8.6 mm Hg. For the same compound, the arterial pressure (arterial pressure [6]; 10 mg/kg i.m., 30 minutes, from 137±3) was 117±5 mm of Hg column, the “efficacy on long-time use” value (arterial pressure [6]; long time use) was “its efficacy is not becoming low (no drug addiction)” and the “β2-adrenoceptor blocking activity, times as high as labetalol” value (β2-adrenoceptor) was 114 times. For the same compound, the “β2-adrenoceptor blocking activity, times as high as oxprenolol” value (β2-adrenoceptor) was 43 times, the “β2-adrenoceptor blocking activity, times as high as propranolol” value (β2-adrenoceptor) was 2 times and the “lower toxicity compared with propranolol, oxprenolol and pindolol” value (albino mice; i.v.) was 2-4 times. For the same compound, the “lower toxicity than propranolol and oxprenolol” value (albino mice; oral) was 2-3 times, the biochemical blood values (experimental animals; 5 and 30 mg/kg, 6 months) was “no effect on biochemical blood values” and the clinical blood values (experimental animals; 5 and 30 mg/kg, 6 months) was “did not change the clinical blood values”. For the same compound, the “influence on behavior, appearance, body functions” value (experimental animals; 5 and 30 mg/kg, 6 months) was “not exert an essential influence”, the locally irritant effect (experimental animals; 5 and 30 mg/kg, 6 months) was “did not exert any locally irritant effect” and the “pathologic alterations in structure of internals” value (experimental animals; 5 and 30 mg/kg, 6 months) was “did not lead to pathologic alterations”. For the same compound, the chronic toxicity tolerance (experimental animals; intragastric) was “excellent tolerance”, the “coronary vessel dilatation / myocardial perfusion” value (coronary vessels) was “dilatation (with confidence) of coronary vessels; also recorded: direct coronarodilating effect” and the “Ventricular fibrillation during acute occlusion and reperfusion” value (ventricular fibrillation; 10 min after injection) was “R”. For the same compound, the “Ventricular fibrillation during acute occlusion and reperfusion” value (ventricular fibrillation; 60 min after injection) was “R”, the “effect on positive inotropism of isadrin” value (β-adrenoceptor [7]) was “completely arrested” and the “effect on positive inotropism of strophanthin, calcium chloride and theophylline” value (β-adrenoceptor [7]) was “did not inhibit but even somewhat enhanced”. The arterial pressure (arterial pressure [8]; 0.01 mg/kg i.v.) was 141±11 mm Hg, the arterial pressure (arterial pressure [8]; 0.025 mg/kg i.v.) was 127±10 mm Hg and the arterial pressure (arterial pressure [8]; 0.1 mg/kg i.v.) was 123 ±11 mm Hg. The minimal effective dose (arterial pressure [8]; Rattus norvegicus, iv, read-out: dosage from which arterial pressure lowered) was 0.1 mg/kg, the non-specific membrane-stabilizing effect (β-adrenoceptor [9]) was “has a non-specific membrane-stabilizing effect” and the partial agonistic activity (β-adrenoceptor [9]) was “fails to exhibit a partial agonistic activity”. For the same compound, the “solubility in ethyl ether” value [10] was “substantially insoluble”, the “solubility in water, chloroform, ethanol” value [10] was “readily soluble” and the “suppression of isadrin positive chronotropic effect” value (β1-adrenoceptor [11]; 0.01 mg/kg i.v.) was 25%. For the same compound, the “suppression of isadrin positive chronotropic effect” value (β1-adrenoceptor [11]; 0.025 mg/kg i.v.) was 46%, the “suppression of isadrin positive chronotropic effect” value (β1-adrenoceptor [11]; 0.1 mg/kg i.v.) was 78% and the “β1-adrenoceptor blocking activity compared with pindolol” value (β1-adrenoceptor [11]; comparison of ED50, rats i.v.) was “close to pindolol”. The “β1-adrenoceptor blocking activity, factor over labetalol” value (β1-adrenoceptor [11]; comparison of ED50, rats i.v.) was 23, the “β1-adrenoceptor blocking activity, factor over oxprenolol” value (β1-adrenoceptor [11]; comparison of ED50, rats i.v.) was 9 and the “β1-adrenoceptor blocking activity, factor over propranolol” value (β1-adrenoceptor [11]; comparison of ED50, rats i.v.) was 12. The “dosage from which isadrin positive chronotropic effect suppressed” value (β1-adrenoceptor [11]; i.v.) was 0.1 mg/kg, the ED50 (β1-adrenoceptor [11]; rat, iv, read-out: Dosage inhibiting isadrin's positive chronotropism by 50% (ED50)) was 0.03 ± 0.001 mg/kg and the arterial pressure (arterial pressure [12]) was “arterial pressure lowering”. The heart rate (arterial pressure [12]) was “a decrease in heart rate”, the “threshold of electrically induced ventricular fibrillation” value ([13]; 1 mg/kg) was “did not change” and the “threshold of electrically induced ventricular fibrillation” value ([13]; 5 mg/kg) was “increased considerably this threshold”. For the same compound, the “value of increasing threshold compared with propranolol and oxprenolol” value ([13]; 5 mg/kg) was “higher” and the “antiarrhythmic activity and efficacy (ventricular fibrillation threshold, strophanthin arrhythmia)” value ([13]; compared with propranolol, oxprenolol, pindolol and labetalol) was “superior to propranolol, oxprenolol, pindolol and labetalol”.
